Measured values as given in patent US6355799B1, “Substituted benzene compounds, process for their preparation, and herbicidal and defoliant compositions containing them” (ISK Americas Incorporated, priority 1997, dated 2002).

Columns and labels:
Assay type in all cases: in vivo
[1] = tested on: redroot pigweed (Amaranthus retroflexus, AMARE); test: Pre-emerge test, greenhouse herbicide activity screening; settings: phytotoxicity rating 0-100, 14 days after application
Summary of the method: (§1)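 Compounds in acetone were track-sprayed at 15-1000 g ai/ha (187 l/ha) on sandy loam pots: pre-emerge one day after seeding, post-emerge at 2-3 leaf stage with 0.25% v/v non-ionic surfactant. Phytotoxicity was rated 14 days later on a 0 (no damage) to 100 (complete death) scale.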

[2] = tested on: barnyardgrass (Echinochloa crus-galli, ECHCG); test: as above; settings: phytotoxicity rating 0-100, 14 days after application
Summary of the method: (§2)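 Compounds in acetone were track-sprayed at 187 l/ha, 15–1000 g ai/ha, onto sandy loam pots. Pre-emerge seeds were sown one day before spraying, with surface watering afterwards. Post-emerge plants were at the 2–3 leaf stage and sprayed with 0.25% v/v non-ionic surfactant. Injury was rated 0–100 at 14 days.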

[3] = tested on: green foxtail (Setaria viridis, SETVI); test: as above; settings: phytotoxicity rating 0-100, 14 days after application
Summary of the method: as §2

[4] = tested on: ivyleaf morningglory (Ipomoea hederacea, IPOHE); test: as above; settings: phytotoxicity rating 0-100, 14 days after application
Summary of the method: as §2

[5] = tested on: johnsongrass (Sorghum halepense, SORHA); test: as above; settings: phytotoxicity rating 0-100, 14 days after application
Summary of the method: as §2

[6] = tested on: lambsquarters (Chenopodium album, CHEAL); test: as above; settings: phytotoxicity rating 0-100, 14 days after application
Summary of the method: as §2

[7] = tested on: large crabgrass (Digitaria sanguinalis, DIGSA); test: as above; settings: phytotoxicity rating 0-100, 14 days after application
Summary of the method: as §2

[8] = tested on: sicklepod (Cassia obtusifolia, CASOB); test: as above; settings: phytotoxicity rating 0-100, 14 days after application
Summary of the method: as §2

[9] = tested on: velvetleaf (Abutilon theophrasti, ABUTH); test: as above; settings: phytotoxicity rating 0-100, 14 days after application
Summary of the method: as §2

[10] = tested on: field corn (Zea mays L., var. Dekalb 535, CORN); test: Pre-emerge test, crop safety; settings: crop damage rating 0-100, 14 days after application
Summary of the method: as §1

[11] = tested on: upland rice (Oryza sp., var. Tebonnet, RICE); test: Pre-emerge test, crop safety; settings: crop damage rating 0-100, 14 days after application
Summary of the method: as §1

[12] = tested on: barnyardgrass (Echinochloa crus-galli, ECHCG); test: Post-emerge test, greenhouse herbicide activity screening; settings: post-emerge, 14 days after application, rating scale 0-100
Summary of the method: (§3)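 Sandy loam pots; pre-emerge: sown 1 d pre-spray, surface-watered after, then bottom-watered. Post-emerge: sown 8–21 d before, 2–3 leaf stage, + 0.25% v/v NIS, bottom-watered. Acetone, 187 l/ha track spray, 15–1000 g ai/ha. 0–100 injury score, day 14.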

[13] = tested on: green foxtail (Setaria viridis, SETVI); test: as above; settings: post-emerge, 14 days after application, rating scale 0-100
Summary of the method: as §3

[14] = tested on: ivyleaf morningglory (Ipomoea hederacea, IPOHE); test: as above; settings: post-emerge, 14 days after application, rating scale 0-100
Summary of the method: as §3

[15] = tested on: johnsongrass (Sorghum halepense, SORHA); test: as above; settings: post-emerge, 14 days after application, rating scale 0-100
Summary of the method: as §3

[16] = tested on: lambsquarters (Chenopodium album, CHEAL); test: as above; settings: post-emerge, 14 days after application, rating scale 0-100
Summary of the method: as §3

[17] = tested on: large crabgrass (Digitaria sanguinalis, DIGSA); test: as above; settings: post-emerge, 14 days after application, rating scale 0-100
Summary of the method: as §3

[18] = tested on: redroot pigweed (Amaranthus retroflexus, AMARE); test: as above; settings: post-emerge, 14 days after application
Summary of the method: as §3

[19] = tested on: sicklepod (Cassia obtusifolia, CASOB); test: as above; settings: post-emerge, 14 days after application, rating scale 0-100
Summary of the method: as §3

[20] = tested on: velvetleaf (Abutilon theophrasti, ABUTH); test: as above; settings: post-emerge, 14 days after application, rating scale 0-100
Summary of the method: as §3

[21] = tested on: field corn (Zea mays L., var. Dekalb 535, CORN); test: Post-emerge test, crop safety; settings: post-emerge, 14 days after application, rating scale 0-100
Summary of the method: as §2

[22] = tested on: upland rice (Oryza sp., var. Tebonnet, RICE); test: Post-emerge test, crop safety; settings: post-emerge, 14 days after application, rating scale 0-100
Summary of the method: as §2

For `COc1c(Cl)cc(F)c(-n2c(=O)cc(C(F)(F)F)n(C)c2=O)c1NC(=O)NCc1ccccc1` [Compound 3-6], the “Pre-emerge Herbicidal Activity AMARE” value ([1]; 63 g ai/ha) was 90, the “Pre-emerge Herbicidal Activity AMARE” value ([1]; 250 g ai/ha) was 100 and the “Pre-emerge Herbicidal Activity ECHCG” value ([2]; 63 g ai/ha) was 40. The “Pre-emerge Herbicidal Activity ECHCG” value ([2]; 250 g ai/ha) was 80, the “Pre-emerge Herbicidal Activity SETVI” value ([3]; 63 g ai/ha) was 100 and the “Pre-emerge Herbicidal Activity SETVI” value ([3]; 250 g ai/ha) was 100. For the same compound, the “Pre-emerge Herbicidal Activity IPOHE” value ([4]; 63 g ai/ha) was 100, the “Pre-emerge Herbicidal Activity IPOHE” value ([4]; 250 g ai/ha) was 95 and the “Pre-emerge Herbicidal Activity SORHA” value ([5]; 63 g ai/ha) was 30. For the same compound, the “Pre-emerge Herbicidal Activity SORHA” value ([5]; 250 g ai/ha) was 80, the “Pre-emerge Herbicidal Activity CHEAL” value ([6]; 63 g ai/ha) was 100 and the “Pre-emerge Herbicidal Activity CHEAL” value ([6]; 250 g ai/ha) was 100. For the same compound, the “Pre-emerge Herbicidal Activity DIGSA” value ([7]; 63 g ai/ha) was 30, the “Pre-emerge Herbicidal Activity DIGSA” value ([7]; 250 g ai/ha) was 100 and the “Pre-emerge Herbicidal Activity CASOB” value ([8]; 63 g ai/ha) was 100. The “Pre-emerge Herbicidal Activity CASOB” value ([8]; 250 g ai/ha) was 100, the “Pre-emerge Herbicidal Activity ABUTH” value ([9]; 63 g ai/ha) was 100 and the “Pre-emerge Herbicidal Activity ABUTH” value ([9]; 250 g ai/ha) was 100. The “Pre-emerge Herbicidal Activity CORN” value ([10]; 63 g ai/ha) was 0, the “Pre-emerge Herbicidal Activity CORN” value ([10]; 250 g ai/ha) was 90 and the “Pre-emerge Herbicidal Activity RICE” value ([11]; 63 g ai/ha) was 30. The “Pre-emerge Herbicidal Activity RICE” value ([11]; 250 g ai/ha) was 80, the “phytotoxicity rating ECHCG” value ([12]; 63 g ai/ha) was 0 and the “phytotoxicity rating ECHCG” value ([12]; 250 g ai/ha) was 20. For the same compound, the “phytotoxicity rating SETVI” value ([13]; 63 g ai/ha) was 0, the “phytotoxicity rating SETVI” value ([13]; 250 g ai/ha) was 40 and the “phytotoxicity rating IPOHE” value ([14]; 63 g ai/ha) was 90. For the same compound, the “phytotoxicity rating IPOHE” value ([14]; 250 g ai/ha) was 100, the “phytotoxicity rating SORHA” value ([15]; 63 g ai/ha) was 0 and the “phytotoxicity rating SORHA” value ([15]; 250 g ai/ha) was 20. For the same compound, the “phytotoxicity rating CHEAL” value ([16]; 63 g ai/ha) was 50, the “phytotoxicity rating CHEAL” value ([16]; 250 g ai/ha) was 90 and the “phytotoxicity rating DIGSA” value ([17]; 63 g ai/ha) was 0. The “phytotoxicity rating DIGSA” value ([17]; 250 g ai/ha) was 10, the “phytotoxicity rating AMARE” value ([18]; 63 g ai/ha, rating scale 0-100 (0 no damage, 100 complete death)) was 100 and the “phytotoxicity rating AMARE” value ([18]; 250 g ai/ha, rating scale 0-100) was 100. For the same compound, the “phytotoxicity rating CASOB” value ([19]; 63 g ai/ha) was 40, the “phytotoxicity rating CASOB” value ([19]; 250 g ai/ha) was 90 and the “phytotoxicity rating ABUTH” value ([20]; 63 g ai/ha) was 100. For the same compound, the “phytotoxicity rating ABUTH” value ([20]; 250 g ai/ha) was 100, the “phytotoxicity rating CORN (crop damage)” value ([21]; 63 g ai/ha) was 20 and the “phytotoxicity rating CORN (crop damage)” value ([21]; 250 g ai/ha) was 70. For the same compound, the “phytotoxicity rating RICE (crop damage)” value ([22]; 63 g ai/ha) was 30 and the “phytotoxicity rating RICE (crop damage)” value ([22]; 250 g ai/ha) was 70.
